Laboratory results taken from US12161648B2, “Covalent targeting of E3 ligases” (The Regents of the University of California, priority 2018, dated 2024).
“Also recorded” adds a separate entry of the source. Each block holds one molecule with its values, some of them ahead of it.

What was measured:
[1] = system: 231MFP breast cancer cells; assay: TMT-based quantitative proteomic profiling of 231MFP cells; format: cell-based, human; settings: 100 nM, 12 h
Description: Data shown in (FIG. 22F) are for 6397 proteins quantified with 2 or more unique peptides in n=3 biologically independent samples/group.
Data shown in FIG. 23I are for 5797 proteins quantified with 2 or more unique peptides in triplicate treatments.

BRD4 [2] = assay: BRD4 degradation in RNF114 wild-type and knockout HAP1 cells; format: cell-based, human
BRD4 [3] = assay: Cell based degrader assay, BRD4 levels by Western blotting in 231MFP cells; parameters: species or system human; settings: for dose-response of BRD4 degradation: 12 h
Description: (§1) Cell based degrader assays. For assaying degrader activity, cells were seeded (500,000 for 231MFP cells, 300,000 for HeLa cells) into a 6 cm tissue culture dish (Corning) in 2.0-2.5 mL of media and allowed to adhere overnight. The following morning, media was replaced with complete media containing the desired concentration of compound diluted from a 1000× stock in DMSO. At the specified timepoint, cells were washed once with PBS on ice, before 150 uL of lysis buffer was added to the plate (10 mM sodium phosphate, 150 mM NaCl, 0.1% SDS, 0.5% sodium deoxycholate, 1% Triton X100). The cells were incubated in lysis buffer for 5 min before scraping and transfer to microcentrifuge tubes. The lysates were then frozen at −80 C or immediately processed for western blotting. To prepare for western blotting, the lysates were cleared with 20,000 g spin for 10 min and the resulting supernatants quantified via BCA assay. The lysates were normalized by dilution with PBS to match the lowest concentration lysate and appropriate amount of 4× Laemmli's reducing buffer added.
Western blotting. Antibodies to RNF4 (Proteintech, 17810-1-AP, 1:1000), GAPDH (Proteintech, 60004-1-IG, 1:5000), BRD4 (Abcam, Ab128874, 1:1000), and beta-actin (Proteintech Group Inc., 6609-1-IG, 1:7000) were obtained from the specified commercial sources and dilutions were prepared in 5% BSA/TBST at the specified dilutions.

[4] = system: 231MFP breast cancer cell proteomes; assay: Gel-based ABPP of general cysteine-reactivity in 231MFP lysates; format: binding, human; settings: IA-rhodamine 250 nM
Description: FIG. 5. Additional hits against RNF4 and general assessment of proteome-wide selectivity of RNF4 hits by gel-based ABPP. Gel-based ABPP analysis of DKM 2-76 and TRH 1-74 against IA-rhodamine labeling of RNF4. Covalent ligands were pre-incubated with pure RNF4 protein for 30 min prior to IA-rhodamine labeling (250 nM) for 1 h. Proteins were subjected to SDS/PAGE and visualized by in-gel fluorescence. Gel-based ABPP screen of RNF4 hits YP 1-44 and TRH 1-23 against IA-rhodamine labeling in 231MFP breast cancer cell proteomes. YP 1-44 and TRH 1-23 were pre-incubated with proteome for 30 min prior to IA-rhodamine labeling (250 nM) for 1 h. Proteins were subjected to SDS/PAGE and visualized by in-gel fluorescence.

RNF4 = target: T1, RNF4 (Homo sapiens, UniProt P78317); assay: Gel-based ABPP, competition against IA-rhodamine labeling of pure RNF4; format: binding; settings: for inhibition of IA-rhodamine labeling of RNF4: confirmation of screening hits; for hits from covalent ligand screen against IA-rhodamine labeling of RNF4: covalent ligands 50 μM, IA-rhodamine 250 nM 1 h; for hits from covalent ligand screen against IA-rhodamine labeling of RNF4 / IC50: 30 min pre-incubation; for IC50: read-out: 50% inhibitory concentration (IC50), IA-rhodamine labeling of RNF4, densitometry
T1 construct: purchased Boston Biochem K-220
T1 sequence (P78317 1-190): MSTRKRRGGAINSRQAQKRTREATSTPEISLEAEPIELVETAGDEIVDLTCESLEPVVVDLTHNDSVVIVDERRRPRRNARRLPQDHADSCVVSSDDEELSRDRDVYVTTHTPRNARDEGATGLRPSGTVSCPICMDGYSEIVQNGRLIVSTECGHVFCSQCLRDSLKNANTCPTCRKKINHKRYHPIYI
Description: Gel-Based ABPP. Gel-based ABPP methods were performed as previously described^5,6,25,26. Pure recombinant human RNF4 was purchased from Boston Biochem (K-220). RNF4 (0.25 μg) was diluted into 50 μL of PBS and 1p L of either DMSO (vehicle) or covalently acting small molecule to achieve the desired concentration. After 30 minutes at room temperature, the samples were treated with 250 nM IA-Rhodamine (Setareh Biotech, 6222, prepared in anhydrous DMSO) for 1 h at room temperature. Samples were then diluted with 20 μL of 4× reducing Laemmli SDS sample loading buffer (Alfa Aesar) and heated at 90° C. for 5 min. The samples were separated on precast 4-20% Criterion TGX gels (Bio-Rad Laboratories, Inc.). Fluorescent imaging was performed on a ChemiDoc MP (Bio-Rad Laboratories, Inc) inhibition of target labeling was assessed by densitometry using ImageJ.

[5] = system: 231MFP breast cancer cells; assay: isoTOP-ABPP proteome-wide selectivity in 231MFP cells in situ; format: cell-based, human
Description: IsoTOP-ABPP chemoproteomic studies. IsoTOP-ABPP studies were done as previously reported^4,6,7,12. […] Proteomes were subsequently treated with IA-alkyne (100 μM, Chess GmbH, 3187) for 1 h at RT. […] Tryptic peptides were eluted off.
Mass Spectrometry Analysis.

BRD4 [6] = target: T2, BRD4 (Homo sapiens, UniProt O60885); assay: BRD4 degradation in RNF4 wild-type and knockout HeLa cells; format: cell-based; settings: 10 μM 5 h
T2 construct: endogenous in cells; host or cells: HeLa cells, RNF4 wild-type and RNF4 knockout
Description: Cell Culture. The 231MFP cells were obtained from Prof. Benjamin Cravatt and were generated from explanted tumor xenografts of MDA-MB-231 cells as previously described^27. RNF4 knockout HeLa cells were purchased from EdiGene USA (CL0033025003A). RNF4 wild-type HeLa cells were provided by EdiGene USA or the UC Berkeley Cell Culture Facility. 231MFP cells were cultured in L-15 media (Corning) containing 10% (v/v) fetal bovine serum (FBS) and maintained at 37° C. with 0% CO2. HeLa cells were cultured in DMEM media (Corning) containing 10% (v/v) fetal bovine serum (FBS) and maintained at 37° C. with 5% CO2.
as §1, with “The cells were incubated in lysis buffer for 5 min before scraping and transfer to microcentrifuge tubes. The lysates were then frozen at −80 C or immediately processed for western blotting.” left out, “The lysates were normalized by dilution with PBS to match the lowest concentration lysate and appropriate amount of 4× Laemmli's reducing buffer added.” left out

human RNF114 = assay: Gel-based ABPP, competition against JNS27 labeling of pure RNF114; format: binding; settings: JNS27 50 μM
Description: (§2) Gel-Based ABPP. Gel-based ABPP methods were performed as previously described^34,62,63,67. Recombinant pure human proteins were purchased from Origene. […] CuAAC was performed to append rhodamine-azide (1 μM final concentration) onto alkyne probe-labeled proteins. Samples were then diluted with 20 μL of 4× reducing Laemmli SDS sample loading buffer (Alfa Aesar) and heated at 90° C. for 5 min. The samples were separated on precast 4-20% TGX gels (Bio-Rad Laboratories, Inc.). Prior to scanning by ChemiDoc MP (Bio-Rad Laboratories, Inc), gels were fixed in a solution of 10% acetic acid, 30% ethanol for 2 hrs. Inhibition of target labeling was assessed by densitometry using ImageJ.
as §2, with “described^14.” for “described^34,62,63,67.”

231MFP cells = assay: Quantitative proteomic profiling of proteins enriched by the nimbolide-alkyne probe in 231MFP cells; format: cell-based, human; settings: in situ labeling of 231MFP cells
RNF114 = target: T3, RNF114 (Homo sapiens, UniProt Q9Y508); assay: Nimbolide-alkyne labeling of RNF114 in 231MFP cells in situ; format: cell-based
T3 construct: Myc; FLAG; purchased Origene
Description: Biotin-azide was appended to probe-labeled proteins by CuAAC, and these proteins were subsequently avidin-enriched. Resulting pulled down proteins were analyzed by SDS/PAGE and Western blotting for RNF114. Gels shown in FIGS. 21C-21F are representative gels from n=3 biologically independent samples/group.

T3 sequence (Q9Y508 whole entry): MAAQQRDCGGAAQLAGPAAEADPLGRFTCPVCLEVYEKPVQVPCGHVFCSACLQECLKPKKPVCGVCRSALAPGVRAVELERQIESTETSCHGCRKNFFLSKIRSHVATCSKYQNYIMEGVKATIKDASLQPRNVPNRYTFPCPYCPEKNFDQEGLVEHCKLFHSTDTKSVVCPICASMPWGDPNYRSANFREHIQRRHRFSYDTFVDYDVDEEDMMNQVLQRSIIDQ

SMILES: COC(=O)C[C@H]1[C@]2(C)C3=C(C)[C@H](c4ccoc4-c4ccc(C(=O)NCCCNC(=O)C[C@@H]5N=C(c6ccc(Cl)cc6)c6c(sc(C)c6C)-n6c(C)nnc65)cc4)C[C@H]3O[C@@H]2[C@@H]2OC(=O)[C@]3(C)C=CC(=O)[C@@]1(C)[C@@H]23 [XH2]
BRD2 and BRD3 levels [1]: sparing the other identified BET family members BRD2 and BRD3
selectivity of protein degradation, BRD4 [1]: selectively degrades BRD4
BRD4 degradation after re-expression of wild-type RNF114 in HAP1 RNF114 knockout cells (BRD4 [2]): restoration of BRD4 degradation
BRD4 degradation in RNF114 knockout (KO) HAP1 cells (BRD4 [2]; 100 nM, 12 h): not observed
time to BRD4 degradation (BRD4 [3]; 231MFP cells, 100 nM): ≤ 12 h
dose-response of BRD4 degradation (BRD4 [3]; 231MFP cells): less degradation at 1 μM compared to 0.1 and 0.01 μM
BRD4 degradation (BRD4 [3]; 231MFP cells, 12 h treatment): led to BRD4 degradation
BRD4 degradation with proteasome inhibitor bortezomib (BTZ) (BRD4 [3]; 231MFP, BTZ 1 μM, degrader 100 nM 12 h): attenuated
BRD4 degradation with TAK-243 or pre-competing JQ1 (BRD4 [3]; 231MFP, TAK-243 10 μM or JQ1 1 μM, degrader 100 nM 12 h): prevented; also recorded: attenuated
BRD4 degradation with translation inhibitor emetine (BRD4 [3]; 231MFP, emetine 75 μM, degrader 100 nM 12 h): had no effect

SMILES: Cc1sc2c(c1C)C(c1ccc(Cl)cc1)=N[C@@H](CC(=O)NCCCCOc1ccc(Oc3ccc(N(Cc4ccccc4)C(=O)CCl)cc3)cc1)c1nnc(C)n1-2 [CCW 28-3, (S)—N-benzyl-2-chloro-N-(4-(4-(4-(2-(4-(4-chlorophenyl)-2,3,9-trimethyl-6H-thieno[3,2-f][1,2,4]triazolo[4,3-a][1,4]diazepin-6-yl)acetamido)butoxy)phenoxy)phenyl)acetamide]
selectivity for RNF4 in cells [5]: not yet completely selective
off-targets part of the ubiquitin-proteasome system ([5]; 10 μM in situ): none of these off-targets of CCW 28-3 are part of the ubiquitin-proteasome system
targets with isotopically light to heavy ratios greater than 4 out of 1114 total quantified probe-modified peptides ([5]; 10 μM in situ 1 h, IA-alkyne 100 μM): 7
BRD4 degradation compared with MZ1 (BRD4 [3]): does not degrade BRD4 as well as
BRD4 degradation (BRD4 [3]; 231MFP cells, 3 h): leads to BRD4 degradation; also recorded: degrades BRD4 in a dose-responsive manner
BRD4 degradation after pre-treatment with bortezomib (BTZ), JQ1 or TAK-243 (BRD4 [3]; 231MFP, inhibitors 10 μM 30 min, degrader 1 μM 3 h): prevented
BRD4 degradation in RNF4 knockout cells (BRD4 [6]; RNF4 knockout HeLa): not evident
BRD4 degradation in HeLa control cells (BRD4 [6]; RNF4 wild-type): observed
IC50 (RNF4): 540 nM

SMILES: COC(=O)C[C@H]1[C@]2(C)C3=C(C)[C@H](c4ccoc4-c4ccc(C(=O)NCCOCCOCCOCCNC(=O)C[C@@H]5N=C(c6ccc(Cl)cc6)c6c(sc(C)c6C)-n6c(C)nnc65)cc4)C[C@H]3O[C@@H]2[C@@H]2OC(=O)[C@]3(C)C=CC(=O)[C@@]1(C)[C@@H]23 [XH1]
BRD4 degradation (BRD4 [3]; 231MFP cells, 12 h treatment): did not show appreciable BRD4 degradation

SMILES: Cc1ncsc1-c1ccc(CNC(=O)[C@@H]2C[C@@H](O)CN2C(=O)[C@@H](NC(=O)COCCOCCOCCNC(=O)C[C@@H]2N=C(c3ccc(Cl)cc3)c3c(sc(C)c3C)-n3c(C)nnc32)C(C)(C)C)cc1 [MZ1, reference compound]
dose-response of BRD4 degradation (BRD4 [3]; 231MFP cells): less degradation at 20 μM compared to 10, 1, and 0.1 μM; also recorded: better BRD4 degradation at 1 and 0.1 μM, and equivalent degradation to XH2 at 10 nM

SMILES: C#CCC1CCC=CC1=O (stereo not shown) [JNS27, reference compound]
probe labeling of RNF114, wild-type versus C8A mutant (human RNF114): selective labeling of C8 on RNF114

SMILES: C#CCNC(=O)c1ccc(-c2occc2[C@@H]2C[C@H]3O[C@@H]4[C@@H]5OC(=O)[C@]6(C)C=CC(=O)[C@](C)([C@@H](CC(=O)OC)[C@]4(C)C3=C2C)[C@@H]56)cc1 [nimbolide-alkyne probe]
additional proteins enriched by >10-fold compared to no-probe controls (231MFP cells): 114
enrichment of RNF114 compared to no-probe controls (231MFP cells): > 10 fold
in situ probe labeling of Flag-tagged RNF114 observed down to (RNF114; 231MFP cells expressing Flag-RNF114, 2 h): 100 nM
pulldown of endogenous RNF114 (RNF114; 231MFP cells, 50 μM probe, 1.5 h): significant pulldown

Second part, led by results:

hits from covalent ligand screen against IA-rhodamine labeling of RNF4 (RNF4): potential hits
SMILES: C=CC(=O)n1ccc2ccccc21 [YP 1-44, 1-(1H-indol-1-yl)prop-2-en-1-one]
selectivity, general cysteine-reactivity [4]: much less selective compared to TRH 1-23
inhibition of IA-rhodamine labeling of RNF4 (RNF4): reproducible and dose-responsive inhibition

hits from covalent ligand screen against IA-rhodamine labeling of RNF4 (RNF4): potential hits
SMILES: CC(CCc1ccccc1)NC(=O)CCl (stereo not shown) [DKM 2-76]

hits from covalent ligand screen against IA-rhodamine labeling of RNF4 (RNF4): potential hits
silver staining of RNF4 (RNF4; gel-based ABPP gels silver stained): may be causing protein precipitation
SMILES: O=C(CCl)Nc1cccc2cnccc12 [TRH 1-163, 2-Chloro-N-(isoquinolin-5-yl)acetamide]
inhibition of IA-rhodamine labeling of RNF4 (RNF4): reproducible and dose-responsive inhibition

hits from covalent ligand screen against IA-rhodamine labeling of RNF4 (RNF4): potential hits
SMILES: C=CC(=O)NC1Cc2ccccc2C1 [TRH 1-74]

reduced IA-rhodamine labeling of RNF4 observed down to (RNF4): 1 µM
IC50 (RNF4): 1800 nM
SMILES: COc1ccc(Oc2ccc(N(Cc3ccccc3)C(=O)CCl)cc2)cc1 [CCW16, N-benzyl-2-chloro-N-(4-(4-methoxyphenoxy)phenyl)acetamide]
selectivity for RNF4 in cells [5]: not yet completely selective
